Assay results taken from patent US20240299352A1, “COMBINATION THERAPIES WITH SETD2 INHIBITORS” (Epizyme, Inc., priority 2021, published 2024).

Columns and labels:
[1] = test system: diffuse large B-cell lymphoma (DLBCL) cell lines; test: Pre-treatment model combination study with Cpd. No. 15 (7 days pre-treatment, then combination; Table G), CellTiter-Glo viability, Loewe Volume; conditions: 7 days pre-treatment with Cpd. No. 15, then combination; for Combination effect with Cpd. No. 15 (Loewe Volume class), Farage: cell line Farage (Cat. No. CRL-2630); for Combination effect with Cpd. No. 15 (Loewe Volume class), HT: cell line HT (Cat. No. CRL-2631); for Combination effect with Cpd. No. 15 (Loewe Volume class), OCILY7: cell line OCILY7 (Cat. No. ACC 688); for Combination effect with Cpd. No. 15 (Loewe Volume class), SUDHL4: cell line SUDHL4 (Cat. No. ACC 495); for Combination effect with Cpd. No. 15 (Loewe Volume class), WILL2: cell line WILL2 (Cat. No. ACC 652)
REC1 = test: Co-treatment combination study with Cpd. No. 15, CellTiter-Glo viability, Loewe Volume; type: cell-based; conditions: in combination with Cpd. No. 15, seven days, mantle cell lymphoma cell line REC1 (CRL-3004)
Description: (§1) Mantle cell lymphoma (MCL) and diffuse large B-cell lymphoma (DLBCL) cell line cultures in log-linear growth rate were treated with combinations of Cpd. No. 15 and combination partners according to a co-treatment model. […] No. 15 and the combination partner. […] Each combination was tested in quadruplicate wells. The final concentration of DMSO (vehicle) in the assay was 0.1% v/v. Fifty microliters of cell line suspension were directly dispensed to the assay-ready plates with an automated multichannel dispenser on to 384-well assay-ready plates. Assay plates were incubated for seven days unless otherwise indicated in a humidified atmosphere of 5% CO2 at 37° C. Quantification of the effect of single agents or combinations on cell viability was performed through measurement of cellular adenosine triphosphate (ATP) using a CellTiter-Glo® (Promega, Madison, WI) Luminescent Cell Viability Assay. Luminescence was detected using a SpectraMax M5 microplate reader (Molecular Devices, Sunnyvale, CA). Concentration response plots were generated in GraphPad Prism version 7.0 for Windows, GraphPad Software, (La Jolla, California) and curves fitted to a four-parameter logistic model with variable slope. Percent of inhibition was calculated at each treatment concentration.

JEKO1 = test: as above; type: cell-based; conditions: in combination with Cpd. No. 15, seven days, mantle cell lymphoma cell line JEKO1 (CRL-3006)
Description: as §1

MINO = test: as above; type: cell-based; conditions: in combination with Cpd. No. 15, seven days, mantle cell lymphoma cell line MINO (CRL-3000)
Description: as §1

Z138 = test: as above; type: cell-based; conditions: in combination with Cpd. No. 15, seven days, mantle cell lymphoma cell line Z138 (CRL-3001)
Description: as §1

JVM2 = test: as above; type: cell-based; conditions: in combination with Cpd. No. 15, seven days, mantle cell lymphoma cell line JVM2 (CRL-3002)
Description: as §1

MAVER1 = test: as above; type: cell-based; conditions: in combination with Cpd. No. 15, seven days, mantle cell lymphoma cell line MAVER1 (CRL-3008)
Description: as §1

GRANTA519 = test: as above; type: cell-based; conditions: in combination with Cpd. No. 15, seven days, mantle cell lymphoma cell line GRANTA519 (ACC 342)
Description: as §1

| Compound | Combination effect with Cpd. No. 15 (Loewe Volume class), Farage [1] | Combination effect with Cpd. No. 15 (Loewe Volume class), HT [1] | Combination effect with Cpd. No. 15 (Loewe Volume class), OCILY7 [1] | Combination effect with Cpd. No. 15 (Loewe Volume class), SUDHL4 [1] | Combination effect with Cpd. No. 15 (Loewe Volume class), WILL2 [1] | Combination effect (Loewe Volume) REC1 (REC1) | Combination effect (Loewe Volume) JEKO1 (JEKO1) | Combination effect (Loewe Volume) MINO (MINO) | Combination effect (Loewe Volume) Z138 (Z138) | Combination effect (Loewe Volume) JVM2 (JVM2) | Combination effect (Loewe Volume) MAVER1 (MAVER1) | Combination effect (Loewe Volume) GRANTA519 (GRANTA519) |
| --- | --- | --- | --- | --- | --- | --- | --- | --- | --- | --- | --- | --- |
| CN(C)CCCOc1ccc(-c2ccc3ncc4c(c3c2)n(C2CCOCC2)c(=O)n4C)cn1 [AZD0156] | Synergy (VLoewe>1: synergy) | Synergy (VLoewe>1: synergy) | Synergy (VLoewe>1: synergy) | Synergy (VLoewe>1: synergy) | No Effect | – | – | – | – | – | – | – |
| C=CCn1c(=O)c2cnc(Nc3ccc(N4CCN(C)CC4)cc3)nc2n1-c1cccc(C(C)(C)O)n1 [AZD1775] | Synergy (VLoewe>1: synergy) | Additivity (between 1 and −1: additivity) | Additivity (between 1 and −1: additivity) | Synergy (VLoewe>1: synergy) | Synergy (VLoewe>1: synergy) | – | – | – | – | – | – | – |
| C[C@@H]1COCCN1c1cc(C2([S@](C)(=N)=O)CC2)nc(-c2cc[nH]c3nccc2-3)n1 [AZD6738] | Synergy (VLoewe>1: synergy) | Additivity (between 1 and −1: additivity) | Additivity (between 1 and −1: additivity) | Synergy (VLoewe>1: synergy) | No Effect | – | – | – | – | – | – | – |
| NC(=O)Nc1cc(-c2cccc(F)c2)sc1C(=O)N[C@H]1CCCNC1 [AZD7762] | Synergy (VLoewe>1: synergy) | Additivity (between 1 and −1: additivity) | Additivity (between 1 and −1: additivity) | Synergy (VLoewe>1: synergy) | Additivity (between 1 and −1: additivity) | – | – | – | – | – | – | – |
| COc1c(OCCCN2CCOCC2)ccc2c1N=C(NC(=O)c1cnc(N)nc1)N1CCN=C21 [Copanlisib, copanlisib] | – | – | – | – | – | Additivity (between 1 and −1: additivity) | Additivity (between 1 and −1: additivity) | Additivity (between 1 and −1: additivity) | Additivity (between 1 and −1: additivity) | Additivity (between 1 and −1: additivity) | Synergy (VLoewe>1: synergy) | Additivity (between 1 and −1: additivity) |
| COc1cccc2c1C(=O)c1c(O)c3c(c(O)c1C2=O)C[C@@](O)(C(=O)CO)C[C@@H]3O[C@H]1C[C@H](N)[C@H](O)[C@H](C)O1 [Doxorubicin (H)] | Synergy (VLoewe>1: synergy) | Synergy (VLoewe>1: synergy) | Additivity (between 1 and −1: additivity) | Synergy (VLoewe>1: synergy) | Synergy (VLoewe>1: synergy) | – | – | – | – | – | – | – |
| CC[C@H](Nc1ncnc2[nH]cnc12)c1nc2cccc(F)c2c(=O)n1-c1ccccc1 [Idelalisib] | Synergy (VLoewe>1: synergy) | Synergy (VLoewe>1: synergy) | Additivity (between 1 and −1: additivity) | Synergy (VLoewe>1: synergy) | – | – | – | – | – | – | – | – |
| NC1(c2ccc(-c3nc4ccn5c(=O)[nH]nc5c4cc3-c3ccccc3)cc2)CCC1 [MK2206] | Synergy (VLoewe>1: synergy) | Synergy (VLoewe>1: synergy) | Synergy (VLoewe>1: synergy) | Synergy (VLoewe>1: synergy) | Synergy (VLoewe>1: synergy) | – | – | – | – | – | – | – |
| NC(=O)c1cccc2cn(-c3ccc([C@@H]4CCCNC4)cc3)nc12 [Niraparib] | Synergy (VLoewe>1: synergy) | Synergy (VLoewe>1: synergy) | Additivity (between 1 and −1: additivity) | Synergy (VLoewe>1: synergy) | Synergy (VLoewe>1: synergy) | – | – | – | – | – | – | – |
| O=C(c1cc(Cc2n[nH]c(=O)c3ccccc23)ccc1F)N1CCN(C(=O)C2CC2)CC1 [Olaparib] | Synergy (VLoewe>1: synergy) | Synergy (VLoewe>1: synergy) | Additivity (between 1 and −1: additivity) | Synergy (VLoewe>1: synergy) | Synergy (VLoewe>1: synergy) | – | – | – | – | – | – | – |
| CC(=O)c1c(C)c2cnc(Nc3ccc(N4CCNCC4)cn3)nc2n(C2CCCC2)c1=O [Palbociclib, palbociclib] | – | – | – | – | – | Additivity (between 1 and −1: additivity) | Synergy (VLoewe>1: synergy) | Additivity (between 1 and −1: additivity) | Additivity (between 1 and −1: additivity) | Additivity (between 1 and −1: additivity) | Synergy (VLoewe>1: synergy) | Additivity (between 1 and −1: additivity) |
| COc1cc(Nc2ncc(F)c(Nc3ccc4c(n3)NC(=O)C(C)(C)O4)n2)cc(OC)c1OC [Tamatinib] | Synergy (VLoewe>1: synergy) | Additivity (between 1 and −1: additivity) | Additivity (between 1 and −1: additivity) | Synergy (VLoewe>1: synergy) | Additivity (between 1 and −1: additivity) | – | – | – | – | – | – | – |
| CC(=O)Nc1cccc(-n2c(=O)n(C3CC3)c(=O)c3c(Nc4ccc(I)cc4F)n(C)c(=O)c(C)c32)c1 [Trametinib] | Synergy (VLoewe>1: synergy) | Synergy (VLoewe>1: synergy) | Synergy (VLoewe>1: synergy) | Synergy (VLoewe>1: synergy) | – | – | – | – | – | – | – | – |
